Assay results reported in US10774053B2, “HIV protease inhibitors” (Gilead Sciences, Inc., priority 2017, dated 2020).
Where two headings read alike, the source gives them in different places.

Legend:
[1] = system: HIV-1 (IIIB) in MT-4 cells; test: microbe, parasite or virus in culture; type: cell-based; settings: Human immunodeficiency virus 1, IIIB
[2] = Liver microsomal stability, human liver microsomes; settings: human
Description: Liver Microsomal Stability Protocol
Test compounds and one control compound (verapamil) were tested in 3 different species in duplicate sets.
Test compound concentration: 1 uM; Protein concentration: 0.5 mg/mL (for dog, rat, and human liver microsomes); Cofactor: NADPH-Regenerating system (NRS) solution; Time-points: 2, 12, 25, 45, and 65 minutes.
Reaction Composition (in Each Incubation Well) Contains:
At an incubation temperature of 37° C., the reaction was started with addition of NADPH Regeneration System, at each time point, 25 uL of the reaction mixture was removed and added to a plate with 225 uL quenching solution (50% MeOH, 25% ACN, 25% H2O, and 200 nM labetalol as internal standard). After plates were vortexed, they were centrifuged for 30 minutes to remove proteins. About 100 μL supernatant was removed to a new plate and diluted with 150 μL water. About 20 μL of the mixture was injected into LC/MS/MS system to monitor the compound's response. In vitro measured t1/2 was used to calculate Clint values.

[3] = MT4, MT-4 cells, HIV-1, read-out: MT4 EC50

SMILES	EC50 [1, 3]	half-life at 1 uM ([2]; liver microsomes)	EC50 ([1]; MT4, read-out: MT4 EC50 (nM))	half-life at 1 uM ([2]; microsomes)
CC(C)(C)C[C@]1(c2ccc(-c3cnn(C(F)F)c3)cc2)NC(=N)N([C@H](COC(=O)N[C@@H]2CC2C(F)(F)F)c2ccc(Cl)c(-n3ncnc3C(F)F)c2)C1=O (single isomer, unassigned) [Compound 331]	16.4 nM	≥ 6.58 h	–	–
CC(C)(C)C[C@]1(c2ccc3nc(C#Cc4ccccc4)ccc3c2)NC(=N)N([C@H](COC(=O)NC2(C(F)(F)F)CC2)c2ccc(Cl)c(-n3ncnc3C(F)F)c2)C1=O (stereo in doubt) [Compound 360]	79.9 nM	≥ 6.58 h	–	–
CC(C)(C)C[C@]1(c2ccc(-c3cnn(C(F)F)c3)cc2)NC(=N)N([C@H](COC(=O)NC2CC2)c2ccc(Cl)c(-c3nccc(=O)[nH]3)c2)[C@H]1O [Compound 17]	556 nM	≥ 6.58 h	–	–
CC(C)(C)C[C@]1(c2ccc(-c3cnn(C(F)F)c3)cc2)NC(=N)N([C@H](COC(=O)NC2(C(F)(F)F)CC2)c2ccc(Cl)c(-c3ccccn3)c2)C1=O [Compound 20]	76.7 nM	≥ 6.58 h	–	–
[H]/N=C1\N[C@](CC(C)(C)C)(c2ccc(-c3cnn(C(F)F)c3)cc2)C(=O)N1[C@H](COC(=O)NC1CC1)c1ccc(Cl)c(-c2ncn(C(F)F)n2)c1 [Compound 34]	38.7 nM	≥ 6.58 h	–	–
CC(C)(C)C[C@]1(c2ccc(-c3cnn(C(F)F)c3)cc2)NC(=N)N([C@H](COC(=O)NC2(C(F)(F)F)CC2)c2ccc(Cl)c(-c3nnn[nH]3)c2)C1=O [Compound 72]	5710 nM	≥ 6.58 h	–	–
CC(C)(C)C[C@]1(c2ccc(-c3cnn(C(F)F)c3)cc2)NC(=N)N([C@H](COC(=O)NC(C)(C)C(F)F)c2ccc(Cl)c(-c3ncn[nH]3)c2)C1=O [Compound 78]	74.9 nM	≥ 6.58 h	–	–
CC(C)(C)C[C@]1(c2ccc(-c3cnn(C(F)F)c3)cc2)NC(=N)N([C@H](COC(=O)NC(C)(C)C(F)F)c2ccc(Cl)c(-c3nccn3C(F)F)c2)C1=O [Compound 89]	34.4 nM	≥ 6.58 h	–	–
CC(C)(C)C[C@]1(c2ccc(-c3cnn(C(F)F)c3)cc2)NC(=N)N([C@H](COC(=O)NC(C)(C)C(F)F)c2ccc(Cl)c(-c3nncn3C(F)F)c2)C1=O [Compound 91]	200 nM	≥ 6.58 h	–	–
[2H]C([2H])([2H])n1cnc(-c2cc([C@@H](COC(=O)NC(C)(C)C(F)F)N3C(=N)N[C@](C[C@]4(C)CC4(F)F)(c4ccc(-c5cnn(C(F)F)c5)cc4)C3=O)ccc2Cl)n1 [Compound 97]	18.9 nM	≥ 6.58 h	–	–
CC(C)(C)C[C@]1(c2ccc(-c3ncccn3)cc2)NC(=N)N([C@H](COC(=O)NC2(C(F)(F)F)CC2)c2ccc(Cl)c(-c3ncn[nH]3)c2)C1=O [Compound 105]	36.7 nM	≥ 6.58 h	–	–
CC(C)(C)C[C@]1(c2ccc(-c3cnn(C(F)F)c3)cc2F)NC(=N)N([C@H](COC(=O)NC2(C(F)(F)F)CC2)c2ccc(Cl)c(-c3ncn[nH]3)c2)C1=O [Compound 110]	96 nM	≥ 6.58 h	–	–
CC(C)(F)C[C@]1(c2ccc(-c3cnn(C(F)F)c3)cc2)NC(=N)N([C@H](COC(=O)NC(C)(C)C(F)F)c2ccc(Cl)c(-c3ncnn3C(F)F)c2)C1=O [Compound 129]	27.3 nM	≥ 6.58 h	–	–
CC(C)(F)C[C@]1(c2ccc(-c3cnn(C(F)F)c3)cc2)NC(=N)N([C@H](COC(=O)NC2(C(F)(F)F)CC2)c2ccc(Cl)c(-c3ncnn3C(F)F)c2)C1=O [Compound 134]	18.5 nM	≥ 6.58 h	–	–
CC(C)(C[C@]1(c2ccc(-c3cnn(C4CC4)c3)cc2)NC(=N)N([C@H](COC(=O)NC2(C(F)(F)F)CC2)c2ccc(Cl)c(-c3ncnn3C(F)F)c2)C1=O)C(F)(F)F [Compound 135]	13.6 nM	≥ 6.58 h	–	–
C[C@H](NC(=O)OC[C@H](c1ccc(Cl)c(-c2ncnn2C(F)F)c1)N1C(=N)N[C@](CC(C)(C)C(F)(F)F)(c2ccc(-c3cnn(C4CC4)n3)cc2)C1=O)C(F)(F)F [Compound 153]	14 nM	≥ 6.58 h	–	–
CC(C)(C[C@]1(c2ccc(-c3cnn(C4CC4)n3)cc2)NC(=N)N([C@H](COC(=O)NC2(C(F)(F)F)CC2)c2ccc(Cl)c(-c3ncnn3C(F)F)c2)C1=O)C(F)F [Compound 154]	19.7 nM	≥ 6.58 h	–	–

SMILES	EC50 [1, 3]	half-life at 1 uM ([2]; liver microsomes)	EC50 ([1]; MT4, read-out: MT4 EC50 (nM))	half-life at 1 uM ([2]; microsomes)
CC(C)(C[C@]1(c2ccc(-c3cnn(C4CC4)n3)cc2)NC(=N)N([C@H](CNC(=O)CC(F)(F)F)c2ccc(Cl)c(-c3ncnn3C(F)F)c2)C1=O)C(F)(F)F [Compound 160]	12.6 nM	≥ 6.58 h	–	–
C[C@H](NC(=O)OC[C@H](c1ccc(Cl)c(-c2ncnn2C(F)F)c1)N1C(=N)N[C@](CC(C)(C)C)(c2ccc(-c3cnn(C(F)F)n3)cc2)C1=O)C(F)(F)F [Compound 163]	9.06 nM	≥ 6.58 h	–	–
CC(C)(C)C[C@]1(c2ccc(-c3cnn(C(F)F)c3)cc2)NC(=N)N([C@H](COC(=O)NC2(C(F)F)CC2)c2ccc(Cl)c(-n3ncnc3C(F)F)c2)C1=O [Compound 179]	–	–	9.37 nM	≥ 6.58 h
CC(C)(C)C[C@]1(c2ccc(-c3cnn(C(F)F)c3)cc2)NC(=N)N([C@H](COC(=O)NC(C)(C)C(F)(F)F)c2ccc(Cl)c(-n3ncnc3C(F)F)c2)C1=O [Compound 182]	12 nM	≥ 6.58 h	–	–
CC(C)(C)C[C@]1(c2ccc(-c3cnn(C4CC4)n3)cc2F)NC(=N)N([C@H](COC(=O)NC2(C(F)(F)F)CC2)c2ccc(Cl)c(-n3ncnc3C(F)F)c2)C1=O [Compound 224]	19.5 nM	≥ 6.58 h	–	–
CC(C)C[C@]1(c2ccc(-c3cnn(C(F)F)c3)cc2F)NC(=N)N([C@H](COC(=O)NC2(C(F)(F)F)CC2)c2ccc(Cl)c(-n3ncnc3C(F)F)c2)C1=O [Compound 278]	23.6 nM	≥ 6.58 h	–	–
Cn1ccc(-c2ccc([C@@]3(CC(C)(C)C)NC(=N)N([C@H](COC(=O)NC4(C(F)(F)F)CC4)c4ccc(Cl)c(-n5ncnc5C(F)F)c4)C3=O)cc2F)n1 [Compound 289]	8.26 nM	≥ 6.58 h	–	–
CC(C)(C)C[C@]1(c2ccc(-c3cnn(S(C)(=O)=O)c3)c(F)c2)NC(=N)N([C@H](COC(=O)NC2(C(F)(F)F)CC2)c2ccc(Cl)c(-n3ncnc3C(F)F)c2)C1=O [Compound 290]	11.6 nM	≥ 6.58 h	–	–
CC(C)(C)C[C@]1(c2ccc(-c3cnn(S(=O)(=O)C4CC4)c3)c(F)c2)NC(=N)N([C@H](COC(=O)NC2(C(F)(F)F)CC2)c2ccc(Cl)c(-n3ncnc3C(F)F)c2)C1=O [Compound 291]	11.8 nM	≥ 6.58 h	–	–
Cn1ccc(-c2ccc([C@@]3(CC(C)(C)C)NC(=N)N([C@H](COC(=O)NC4CC4(F)F)c4ccc(Cl)c(-n5ncnc5C(F)F)c4)C3=O)cc2F)n1 (some centres unmarked) [Compound 295]	7.33 nM	≥ 6.58 h	–	–
CC(C)(C)C[C@]1(c2ccc(-c3cnn(S(C)(=O)=O)c3)c(F)c2)NC(=N)N([C@H](COC(=O)NC2(C(F)F)CC2)c2ccc(Cl)c(-n3ncnc3C(F)F)c2)C1=O [Compound 303]	11.2 nM	≥ 6.58 h	–	–
CC(C)(C[C@]1(c2ccc(-c3cnn(S(C)(=O)=O)c3)cc2)NC(=N)N([C@H](COC(=O)NC2(C(F)(F)F)CC2)c2ccc(Cl)c(-n3ncnc3C(F)F)c2)C1=O)C(F)(F)F [Compound 308]	16.3 nM	≥ 6.58 h	–	–
CC(C)(C)C[C@]1(c2ccc(-c3cccc(S(C)(=O)=O)c3)c(F)c2)NC(=N)N([C@H](COC(=O)NC2(C(F)(F)F)CC2)c2ccc(Cl)c(-n3ncnc3C(F)F)c2)C1=O [Compound 312]	27.8 nM	≥ 6.58 h	–	–
CC(C)(C)C[C@]1(c2ccc(-c3cnn(C4CC4)c3)cc2Cl)NC(=N)N([C@H](COC(=O)NC2(C(F)(F)F)CC2)c2ccc(Cl)c(-n3ncnc3C(F)F)c2)C1=O [Compound 317]	99.1 nM	≥ 6.58 h	–	–
CC(C)(C#N)C[C@]1(c2ccc(-c3ccn(C(F)F)n3)cc2)NC(=N)N([C@H](COC(=O)NC2(C(F)(F)F)CC2)c2ccc(Cl)c(-n3ncnc3C(F)F)c2)C1=O [Compound 336]	74.7 nM	≥ 6.58 h	–	–
CC(C)(C)C[C@]1(c2ccc(-c3cnn(C(F)F)c3)c(F)c2)NC(=N)N([C@H](COC(=O)N[C@@H]2CC2(F)F)c2ccc(Cl)c(-n3ncnc3C(F)F)c2)C1=O [Compound 339]	9.09 nM	≥ 6.58 h	–	–
C[C@H](NC(=O)OC[C@H](c1ccc(Cl)c(-n2ncnc2C(F)F)c1)N1C(=N)N[C@](CC(C)(C)C)(c2ccc(-c3cnn(C(F)F)c3)cc2)C1=O)C(F)F [Compound 344]	12.1 nM	≥ 6.58 h	–	–
